Columns and labels:
[1] = tested on: foot tapping in gerbils induced by central injection of an NK1 agonist; experiment: Gerbil foot-tapping assay; assay type: in vivo, Mongolian gerbils; conditions: i.v.
Text: CNS penetrant NK-1 receptor antagonists for use in the present invention can be identified by their ability to inhibit foot tapping in gerbils induced by anxiogenic agents (such as pentagastrin) or central infusion of NK-1 receptor agonists such as GR73632, or caused by aversive stimulation such as foot shock or single housing, based on the method of Rupniak & Williams, Eur. J. Pharmacol., 1994, 265, 179.
Male or female Mongolian gerbils (35-70g) are anaesthetised by inhalation of an isoflurane/oxygen mixture to permit exposure of the jugular vein in order to permit administration of test compounds or vehicle in an injection volume of 5 ml/kg i.v. Alternatively, test compounds may be administered orally or by subcutaneous or intraperitoneal routes. The wound is closed and a second skin incision is made in the midline of the scalp to expose the skull. An anxiogenic agent (e.g. pentagastrin) or a selective NK-1 receptor agonist (e.g. GR73632 (d Ala[L-Pro^9,Me-Leu^10]-substance P-(7-11))) is infused directly into the cerebral ventricles (e.g. 3 pmol in 5 μl i.c.v. depending upon the agent) by vertical insertion of a cuffed 27 gauge needle to a depth of 4.5 mm below bregma. […] The duration and/or intensity of hind foot tapping is then recorded continuously for 5 minutes.

[2] = tested on: distress vocalisations in guinea-pig pups; experiment: Separation-induced vocalisation assay; assay type: in vivo, guinea-pigs; conditions: p.o.
Experimental: On test days each pup receives an oral dose or a s.c. or i.p. injection of test compound or vehicle and is then immediately returned to the home cage with its mother and siblings for 30 minutes to 60 minutes (or for up to 4 hours following an oral dose, dependant upon the oral pharmacokinetics of the test compound) before social isolation for 15 minutes as described above. […] Between 6 and 8 animals receive each test compound at each dose tested.

SMILES: C[C@@H](O[C@H]1OCCN(Cc2n[nH]c(=O)[nH]2)[C@H]1c1ccc(F)cc1)c1cc(C(F)(F)F)cc(C(F)(F)F)c1 [2-(R)-(1-(R)-(3,5-bis(trifiuoromethyl)phenyl)-ethoxy)-3-(S)-(4-fluorophenyl)-4-(3-(5-oxo-1H,4H-1,2,4-triazolo)methyl)-morpholine]
- gerbil foot-tapping (5 mins.): ID50 ([1]; 5 mins.): ID50 = 0.36 mg/kg i.v.
- gerbil foot-tapping (24 hrs.): ID50 ([1]; 24 hrs. prior to challenge): ID50 = 0.33 mg/kg i.v.
- guinea-pig vocalisation (4 hr. pre-treatment): ID50 [2]: ID50 = 0.73 mg/kg p.o.

Reference: US6573261B2, “Method for treating or preventing psychosomatic and psychoimmunologic disorders” (Merck & Co., Inc., priority 1997, dated 2003)
